# In publication PMC7930822, “Phase I Trial to Evaluate the Tolerance, Pharmacokinetics and Efficacy of the Broad-Spectrum ErbB Family Inhibitor Larotinib Mesylate in Patients With Advanced Solid Tumors” (Frontiers in Pharmacology, 2021):
# Structures can show the parent of a compound that is named as a salt. Where two headings read alike, the source gives them in different places.
# Assay: phase I plasma pharmacokinetics (non-compartmental, LC-MS/MS)
# Format: in vivo, human
# Details: plasma, plasma; for Tmax / Vd/F / AUC(0-t) / AUC(0-inf) / Cmax / half-life / AUC: human; for Tmax / Vd/F / AUC(0-t) / AUC(0-inf) / Cmax / half-life: po; for AUC: read-out: AUCτ,ss, mean (min–max)
# Experimental: This was a phase I, single-center, open-label, dose-escalation study conducted at First Hospital of Jilin University, China (registration no.: ChiCTR-OPC-15007153 registered at http://www.chictr.org.cn). Larotinib mesylate hard capsules were produced and supplied by Sunshine Lake Pharma Co., Ltd (Guangdong Province, China) in different unit doses of […] under GMP condition. Seven dose levels were designed in the study: 50, 100, 150, 220, 300, 350, and 400 mg with administration stages labeled cycle 0, cycle 1, and subsequent treatment cycles. Patients received an oral single dose of larotinib mesylate after fasting during a 6-days cycle 0 to evaluate the tolerance and pharmacokinetic characteristics. After cycle 0, larotinib mesylate was continuously administered once daily for 28 days in cycle 1, and the tolerance and pharmacokinetic characteristics of multiple doses were evaluated (Figure 2). The patients who […] disease control (complete response [CR], partial response [PR], or stable disease [SD]) at the end of cycle one were permitted to participate in the subsequent 28-days treatment cycles until progressive disease (PD) or intolerance was observed.
# Blood samples (4 ml) for pharmacokinetic analyses were collected in tubes containing K2EDTA anticoagulant. Blood samples were centrifuged at 3,000 rpm for 10 min at 4°C and stored at –80°C until liquid chromatography-mass spectrophotometry (LC-MS/MS) analysis. Urine and fecal samples were collected only when patients were given the150-mg and 220-mg dose levels at sampling time intervals of 0–4, 4–8, 8–12, 12–24, 24–48, 48–72, 72–96 and 96–120 h in cycle 0.
# Linear mixed effects model was used to explore the dose exposure relationships. Dose proportionality was concluded if the 95% confidence interval (CI) of the linear regression slope was completely contained within the decision interval (1 + ln (0.8)/ln (8)∼1 + ln (1.25)/ln (8)). For urine and fecal data, the accumulative excretion rates of larotinib and M5 were calculated.
# Bioanalysis was performed at Frontage Company (Shanghai, China). Validated high-performance LC-MS/MS method was used to quantify the concentrations of larotinib and M5 in plasma, urine and feces samples. Protein precipitation was employed for plasma, urine and feces processing. Plasma larotinib and M5 concentrations were determined using appropriate calibration curves obtained from standards in the range of 0.5–1,000 ng/ml. The interassay precision of the analysis method were 4.2–5.4% for larotinib and 3.9–4.3% for M5. The interassay accuracy of the analysis method were 100.4–103.4% for larotinib and 102.2–102.9% for M5, respectively.
# Statistical analyses were performed using SAS software, version 9.2 (SAS Institute Inc., United States). Descriptive statistics were used to summarize continuous variables as cases, means with standard deviations (SDs), medians, quartiles, maximums and minimums. For categorical variables, frequencies and percentages were used. A linear mixed effects model, relating log-transformed Cmax and AUC parameters to log-transformed dose, was used to investigate dose proportionality.
# [1] = multiple oral administration, 50 mg larotinib mesylate, steady state
# [2] = multiple oral administration, 100 mg larotinib mesylate, steady state
# [3] = multiple oral administration, 150 mg larotinib mesylate, steady state
# [4] = multiple oral administration, 220 mg larotinib mesylate, steady state
# [5] = multiple oral administration, 300 mg larotinib mesylate, steady state
# [6] = multiple oral administration, 350 mg larotinib mesylate, steady state
# [7] = multiple oral administration, 400 mg larotinib mesylate, steady state
smiles,measurement,setting,value
COc1cc2ncnc(Nc3ccc(F)c(Cl)c3)c2cc1OCCCN1C[C@@H]2OCCO[C@@H]2C1 [larotinib mesylate],Tmax,"300 mg, multiple oral administration, 300 mg larotinib mesylate, steady state, read-out: Tmax,ss, median (min–max)",5 h
same,Vd/F,"300 mg, multiple oral administration, 300 mg larotinib mesylate, steady state, read-out: Vz/F,ss, mean (min–max)",1060 L
same,AUC(0-t),"300 mg, single oral administration, 300 mg larotinib mesylate, read-out: AUC0-24, mean (min–max)",2690 ng·h/mL
same,AUC(0-t),"300 mg, single oral administration, 300 mg larotinib mesylate, read-out: AUC0-t, mean (min–max)",4880 ng·h/mL
same,AUC(0-inf),"300 mg, single oral administration, 300 mg larotinib mesylate, read-out: AUC0-∞, mean (min–max)",5550 ng·h/mL
same,Cmax,"300 mg, single oral administration, 300 mg larotinib mesylate, read-out: Cmax, mean (min–max)",267 ng/mL
same,half-life,"300 mg, single oral administration, 300 mg larotinib mesylate, read-out: T1/2, mean (min–max) (converted)",46.2 h
same,Tmax,"300 mg, single oral administration, 300 mg larotinib mesylate, read-out: Tmax, median (min–max)",5 h
same,Vd/F,"300 mg, single oral administration, 300 mg larotinib mesylate, read-out: Vz/F, mean (min–max)",4340 L
same,AUC(0-t),"350 mg, multiple oral administration, 350 mg larotinib mesylate, steady state, read-out: AUC0-t,ss, mean (min–max)",35900 ng·h/mL
same,AUC(0-inf),"350 mg, multiple oral administration, 350 mg larotinib mesylate, steady state, read-out: AUC0-∞,ss, mean (min–max)",47300 ng·h/mL
same,Cmax,"350 mg, multiple oral administration, 350 mg larotinib mesylate, steady state, read-out: Cmax,ss, mean (min–max)",695 ng/mL
same,half-life,"350 mg, multiple oral administration, 350 mg larotinib mesylate, steady state, read-out: T1/2,ss, mean (min–max) (converted)",58.6 h
same,Tmax,"350 mg, multiple oral administration, 350 mg larotinib mesylate, steady state, read-out: Tmax,ss, median (min–max)",5 h
same,Vd/F,"350 mg, multiple oral administration, 350 mg larotinib mesylate, steady state, read-out: Vz/F,ss, mean (min–max)",641 L
same,AUC(0-t),"350 mg, single oral administration, 350 mg larotinib mesylate, read-out: AUC0-24, mean (min–max)",3240 ng·h/mL
same,AUC(0-t),"350 mg, single oral administration, 350 mg larotinib mesylate, read-out: AUC0-t, mean (min–max)",6120 ng·h/mL
same,AUC(0-inf),"350 mg, single oral administration, 350 mg larotinib mesylate, read-out: AUC0-∞, mean (min–max)",6830 ng·h/mL
same,Cmax,"350 mg, single oral administration, 350 mg larotinib mesylate, read-out: Cmax, mean (min–max)",300 ng/mL
same,half-life,"350 mg, single oral administration, 350 mg larotinib mesylate, read-out: T1/2, mean (min–max) (converted)",44.6 h
same,Tmax,"350 mg, single oral administration, 350 mg larotinib mesylate, read-out: Tmax, median (min–max)",3.5 h
same,Vd/F,"350 mg, single oral administration, 350 mg larotinib mesylate, read-out: Vz/F, mean (min–max)",3800 L
same,AUC(0-t),"400 mg, multiple oral administration, 400 mg larotinib mesylate, steady state, read-out: AUC0-t,ss, mean (min–max)",45000 ng·h/mL
same,AUC(0-inf),"400 mg, multiple oral administration, 400 mg larotinib mesylate, steady state, read-out: AUC0-∞,ss, mean (min–max)",70400 ng·h/mL
same,Cmax,"400 mg, multiple oral administration, 400 mg larotinib mesylate, steady state, read-out: Cmax,ss, mean (min–max)",845 ng/mL
same,half-life,"400 mg, multiple oral administration, 400 mg larotinib mesylate, steady state, read-out: T1/2,ss, mean (min–max) (converted)",87 h
same,Tmax,"400 mg, multiple oral administration, 400 mg larotinib mesylate, steady state, read-out: Tmax,ss, median (min–max)",6 h
same,Vd/F,"400 mg, multiple oral administration, 400 mg larotinib mesylate, steady state, read-out: Vz/F,ss, mean (min–max)",754 L
same,AUC(0-t),"400 mg, single oral administration, 400 mg larotinib mesylate, read-out: AUC0-24, mean (min–max)",3970 ng·h/mL
same,AUC(0-t),"400 mg, single oral administration, 400 mg larotinib mesylate, read-out: AUC0-t, mean (min–max)",7440 ng·h/mL
same,AUC(0-inf),"400 mg, single oral administration, 400 mg larotinib mesylate, read-out: AUC0-∞, mean (min–max)",9090 ng·h/mL
same,Cmax,"400 mg, single oral administration, 400 mg larotinib mesylate, read-out: Cmax, mean (min–max)",354 ng/mL
same,half-life,"400 mg, single oral administration, 400 mg larotinib mesylate, read-out: T1/2, mean (min–max) (converted)",68.6 h
same,Tmax,"400 mg, single oral administration, 400 mg larotinib mesylate, read-out: Tmax, median (min–max)",5 h
same,Vd/F,"400 mg, single oral administration, 400 mg larotinib mesylate, read-out: Vz/F, mean (min–max)",7410 L
same,half-life,"single oral dose, across 50–400 mg, read-out: mean t1/2",39.3 to 68.6 h
same,Tmax,"single oral dose, across 50–400 mg, read-out: median Tmax",3.5 to 6 h
same,AUC,[1],1220 ng·h/mL
same,AUC,[2],1970 ng·h/mL
same,AUC,[3],6500 ng·h/mL
same,AUC,[4],10300 ng·h/mL
same,AUC,[5],7260 ng·h/mL
same,AUC,[6],13200 ng·h/mL
same,AUC,[7],16100 ng·h/mL
same,"CL/F,ss, mean (min–max)",[1],10.73 (7.513–12.58) L/h
same,"CL/F,ss, mean (min–max)",[2],21.17 (13.80–29.53) L/h
same,"CL/F,ss, mean (min–max)",[3],6.512 (4.414–7.565) L/h
same,"CL/F,ss, mean (min–max)",[4],5.126 (4.592–6.098) L/h
same,"CL/F,ss, mean (min–max)",[5],13.91 (10.58–18.36) L/h
same,"CL/F,ss, mean (min–max)",[6],7.648 (5.819–8.842) L/h
same,"CL/F,ss, mean (min–max)",[7],6.087 (4.160–7.894) L/h
same,"CL/F, mean (min–max)","single oral administration, 50 mg larotinib mesylate",62.01 (54.17–71.3) L/h
same,"CL/F, mean (min–max)","single oral administration, 100 mg larotinib mesylate",73.81 (62.61–90.83) L/h
same,"CL/F, mean (min–max)","single oral administration, 150 mg larotinib mesylate",29.11 (18.30–38.09) L/h
same,"CL/F, mean (min–max)","single oral administration, 220 mg larotinib mesylate",27.79 (24.27–33.83) L/h
same,"CL/F, mean (min–max)","single oral administration, 300 mg larotinib mesylate",63.76 (30.15–116.4) L/h
same,"CL/F, mean (min–max)","single oral administration, 350 mg larotinib mesylate",55.78 (36.19–73.27) L/h
same,"CL/F, mean (min–max)","single oral administration, 400 mg larotinib mesylate",70.47 (29.90–145.6) L/h
